According to patent publication US7662832B2, “Pyrrolo[2,3-c]pyridine derivatives and processes for the preparation thereof” (priority 2004, dated 2010):
Where a name gives a salt, the structure may show the parent alone.

How the values were obtained:
[1] = test system: basal gastric acid secretion; assay: Inhibitory effects on basal gastric acid secretion in pylorus-ligated rats (Shay's rat model); type: in vivo, Sprague Dawley (SD) rats; conditions: oral, one hour before pylorus ligation, total acid output 5 hours after ligation
Experimental: Inhibitory effects of the compounds of the present invention on basal gastric acid secretion were performed according to Shay's rat model (Shay, H., et al., 1945, gastroenterology, 5, 43-61). Male Sprague Dawley (SD) rats (200±10 g body weight) were divided into […] (n=5) and fasted for 24 hours with free access to water. Control group was orally administered with 0.5% methylcellulose alone and the other groups were orally administered with test compounds suspended in 0.5% methylcellulose solution at doses of 1, 3 and 10 mg/kg/5 ml one hour before pylorus ligation.
Under ether anesthesia, the abdomens of the rats were incised and then the pylorus was ligated. 5 hours after ligation, the animals were sacrificed, and the gastric contents were collected. The collected contents were centrifuged at 1,000×g for 10 minutes to obtain the gastric juice. Total acid output was measured by 0.01N NaOH volume (ueq/ml) for automatic titration of the gastric juice to pH 7.0 and the ED50s of test compounds were calculated using the Litchfield-Wilcoxon method. % inhibitory activity was calculated from the following equation and the results are shown in Table 2. % inhibitory activity of test compound=(total acid output of control group−total acid output of the group treated with test compounds)/total acid output of control group×100

[2] = target: Proton Pump (H^+/K^+-ATPase) (Sus scrofa, UniProt P19156); assay: Inhibitory effects on proton pump (H^+/K^+-ATPase) activity; type: biochemical; conditions: hog gastric vesicles; K^+ stimulated H^+/K^+-ATPase activity; 30 minutes at 37° C.
Sequence of Proton Pump (H^+/K^+-ATPase) (P19156 2-1034 limits assumed): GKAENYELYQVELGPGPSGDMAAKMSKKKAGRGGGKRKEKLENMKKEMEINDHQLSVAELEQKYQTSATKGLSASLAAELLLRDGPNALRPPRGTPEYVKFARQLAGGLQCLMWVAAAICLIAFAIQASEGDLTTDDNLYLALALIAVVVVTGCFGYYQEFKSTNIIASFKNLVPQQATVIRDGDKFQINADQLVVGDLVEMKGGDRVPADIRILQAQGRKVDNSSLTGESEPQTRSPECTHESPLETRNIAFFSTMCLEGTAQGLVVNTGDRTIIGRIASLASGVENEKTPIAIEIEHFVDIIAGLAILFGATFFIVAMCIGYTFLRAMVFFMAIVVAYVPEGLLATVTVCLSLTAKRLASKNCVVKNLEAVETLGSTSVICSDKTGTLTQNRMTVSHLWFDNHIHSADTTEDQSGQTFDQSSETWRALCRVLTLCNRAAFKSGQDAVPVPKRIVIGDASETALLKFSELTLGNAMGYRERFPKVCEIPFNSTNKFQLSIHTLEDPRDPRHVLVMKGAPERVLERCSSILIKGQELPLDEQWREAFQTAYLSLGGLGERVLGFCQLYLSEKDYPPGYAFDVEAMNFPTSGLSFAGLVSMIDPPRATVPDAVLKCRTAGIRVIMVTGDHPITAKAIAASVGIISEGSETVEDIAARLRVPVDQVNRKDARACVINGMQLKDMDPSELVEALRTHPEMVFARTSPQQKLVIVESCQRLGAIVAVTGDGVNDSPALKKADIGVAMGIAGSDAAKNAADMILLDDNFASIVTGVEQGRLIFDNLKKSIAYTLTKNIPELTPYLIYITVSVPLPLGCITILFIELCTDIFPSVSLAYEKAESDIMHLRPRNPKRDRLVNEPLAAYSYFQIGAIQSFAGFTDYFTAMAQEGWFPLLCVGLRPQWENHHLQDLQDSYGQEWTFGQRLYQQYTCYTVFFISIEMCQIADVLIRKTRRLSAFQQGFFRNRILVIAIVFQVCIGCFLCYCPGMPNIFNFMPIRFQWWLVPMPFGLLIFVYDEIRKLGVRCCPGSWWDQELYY
Sequence of Proton Pump (H^+/K^+-ATPase) (P18434 whole entry partner): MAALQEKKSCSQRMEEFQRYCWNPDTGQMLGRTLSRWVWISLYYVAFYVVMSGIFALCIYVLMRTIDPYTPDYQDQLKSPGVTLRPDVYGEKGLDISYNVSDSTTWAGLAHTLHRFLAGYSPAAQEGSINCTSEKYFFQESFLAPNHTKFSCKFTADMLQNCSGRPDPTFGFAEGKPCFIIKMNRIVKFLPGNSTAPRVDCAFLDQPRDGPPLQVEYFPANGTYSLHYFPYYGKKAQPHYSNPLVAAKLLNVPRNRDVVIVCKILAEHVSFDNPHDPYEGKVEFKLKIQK

[3] = target: T1, hog gastric H^+/K^+-ATPase (Sus scrofa, UniProt P19156); assay: Reversible inhibition of hog gastric H^+/K^+-ATPase (washout method); type: biochemical
T1 construct: from tissue; host or cells: hog gastric fundic mucosa; gastric vesicles (microsomes), lyophilized
T1 sequence (P19156 2-1034 limits assumed): as the sequence (P19156 2-1034 limits assumed) above
T1 sequence (P18434 whole entry partner): as the sequence (P18434 whole entry partner) above
Experimental: 3-1. Preparation of Gastric Vesicles
[…]. IX. Fraction and purification of K-ATPase-containing vesicles by zonal centrifugation and free-flow electrophoresis techinque. Biochem. Biophy. Acta. (BBA)-Biomembranes 465, 311-330, 1977). This matertal was lyophilized and stored at −70° C. The protein content of gastric vesicles was determined by the Bradford method using bovine serum albumin as a standard (Bradford M M, A rapid and sensitive method for the quantitation of microgram quantities of protein utilizing the principle of protein-dye binding. Anal Biochem. 72, 248-254, 1976).
3-2. Determination of Reversible Inhibition of Hog Gastric H^+/K^+-ATPase
Activity of H^+/K^+-ATPase in hog microsome (lyophilized vesicle) was measured by the inorganic phosphate released from ATP using an one-step calorimetric detection method at the concentration at which the test compounds have 50% inhibition of the proton pump (Chan K M, Delfert D, and Junger K D, A direct calorimetric assay for Ca^2+-stimulated ATPase activity. Anal Biochem, 157, 375-380, 1986). The mode of action of test compounds on H^+/K^+-ATPase was investigated according to the Washout method (Beil W, Staar U, and Sewing K F, Substituted thieno[3,4-d]imidazoles, a novel group of H^+/K+-ATPase inhibitors. Differentiation of their inhibition charactertstics from those of omeprazole. Eur. J. Pharmacol., 187, 455-67, 1990). […]

Q: How did the ED50 [1] turn out when Cc1c(C)n(Cc2ccccc2)c2c(N3CCc4ccccc4C3)nccc12.Cl [Example 469, 1-benzyl-7-(1,2,3,4-tetrahydroisoquinolin-2-yl)-2,3-dimethyl-1H-pyrrolo[2,3-c]pyridine hydrochloride] was run?
A: 1.4 mg/kg

Q: And the IC50 [2]?
A: 52 nM

Q: Cc1nc(Cn2c(C)c(C)c3ccnc(N4CCc5ccccc5C4)c32)cs1.Cl [Example 474, 1-(2-methylthiazol-4-ylmethyl)-7-(1,2,3,4-tetrahydroisoquinolin-2-yl)-2,3-dimethyl-1H-pyrrolo[2,3-c]pyridine hydrochloride] was tested. Which ED50 [1] did it give?
A: 11.9 mg/kg

Q: What about the IC50 [2] of the same compound?
A: 110 nM

Q: How did the ED50 [1] turn out when C=CCn1c(C)c(C)c2ccnc(N3CCc4cc(F)ccc4C3C)c21.Cl (stereo not drawn) [Example 563, 2-(1-allyl-2,3-dimethyl-1H-pyrrolo[2,3-c]pyridin-7-yl)-6-fluoro-1-methyl-1,2,3,4-tetrahydroisoquinoline hydrochloride] was run?
A: 3.5 mg/kg

Q: And the IC50 [2]?
A: 49 nM

Q: How did the ED50 [1] turn out when C=COCCn1c(C)c(C)c2ccnc(N3CCc4ccccc4C3)c21.Cl [Example 511, 1-(2-vinyloxyethyl)-7-(1,2,3,4-tetrahydroisoquinolin-2-yl)-2,3-dimethyl-1H-pyrrolo[2,3-c]pyridine hydrochloride] was run?
A: 2.1 mg/kg

Q: And the IC50 [2]?
A: 420 nM

Q: With C=CCn1c(C)c(C)c2ccnc(N3CCc4ccccc4C3C)c21.Cl (stereo not drawn) [Example 553, 2-(1-allyl-2,3-dimethyl-1H-pyrrolo[2,3-c]pyridin-7-yl)-1-methyl-1,2,3,4-tetrahydroisoquinoline hydrochloride] as the compound, how does the ED50 [1] read?
A: 2.1 mg/kg

Q: And the IC50 [2]?
A: 26 nM

Q: How did the ED50 [1] turn out when C=CCn1c(C)c(C)c2ccnc(N3CCc4ccccc4C3)c21.Cl [Example 484, 1-allyl-7-(1,2,3,4-tetrahydroisoquinolin-2-yl)-2,3-dimethyl-1H-pyrrolo[2,3-c]pyridine hydrochloride] was run?
A: 1.4 mg/kg

Q: What about the IC50 [2] of the same compound?
A: 3.7 nM

Q: Which results are given for Cc1c(C)n(Cc2cccc(F)c2)c2c(N3CCc4ccccc4C3C)nccc12.Cl (stereo not drawn) [Example 557, 2-[1-(3-fluorobenzyl)-2,3-dimethyl-1H-pyrrolo[2,3-c]pyridin-7-yl]-1-methyl-1,2,3,4-tetrahydroisoquinoline hydrochloride]?
A: ED50 [1]: 4.1 mg/kg; IC50 [2]: 146 nM

Q: Which results are given for Cc1[nH]c2c(-c3ccc4ccccc4c3)nccc2c1C.Cl [Example 402, 2,3-dimethyl-7-(naphthalen-2-yl)-1H-pyrrolo[2,3-c]pyridine hydrochloride]?
A: ED50 [1]: 11.2 mg/kg; IC50 [2]: 63 nM

Q: Which ED50 [1] does the source give for Cc1c(C)n(Cc2cccc(F)c2)c2c(N3CCc4ccccc4C3)nccc12.Cl [Example 480, 1-(3-fluorobenzyl)-7-(1,2,3,4-tetrahydroisoquinolin-2-yl)-2,3-dimethyl-1H-pyrrolo[2,3-c]pyridine hydrochloride] here?
A: 1.8 mg/kg

Q: And the “inhibition of H^+/K^+-ATPase activity after washout” value ([3]; after washout, compared with non-treated group)?
A: did not inhibit

Q: What about the “inhibition of H^+/K^+-ATPase activity before washout” value ([3]; before washout, test compound at the concentration of 50% inhibition of the proton pump) of the same compound?
A: 50%

Q: What about the IC50 [2] of the same compound?
A: 32 nM

Q: Which results are given for Cc1c(C)n(Cc2ccccc2)c2c(N(C)Cc3ccc(F)cc3)nccc12 [Example 141, 1-benzyl-7-[N-(4-fluorobenzyl)-N-methyl]amino-2,3-dimethyl-1H-pyrrolo[2,3-c]pyridine hydrochloride]?
A: ED50 [1]: 2.3 mg/kg; IC50 [2]: 64 nM

Q: For Cc1c(C)n(C)c2c(N3CCc4ccccc4C3)nccc12.Cl [Example 470, 7-(1,2,3,4-tetrahydroisoquinolin-2-yl)-1,2,3-trimethyl-1H-pyrrolo[2,3-c]pyridine hydrochloride], which ED50 [1] is on record?
A: 4.4 mg/kg

Q: And the IC50 [2]?
A: 320 nM

Q: Which results are given for Cc1ccccc1CNc1nccc2c(C)c(C)n(CC(C)C)c12.Cl [Example 210, 1-isobutyl-2,3-dimethyl-7-(2-methylbenzylamino)-1H-pyrrolo[2,3-c]pyridine hydrochloride]?
A: ED50 [1]: 1.9 mg/kg; IC50 [2]: 54 nM

Q: How did the ED50 [1] turn out when CCCn1c(C)c(C)c2ccnc(NCc3ccc(Cl)cc3)c21.Cl [Example 229, 7-(4-chlorobenzylamino)-2,3-dimethyl-1-propyl-1H-pyrrolo[2,3-c]pyridine hydrochloride] was run?
A: 2.2 mg/kg

Q: What about the IC50 [2] of the same compound?
A: 240 nM

Q: For CCCn1c(C)c(C)c2ccnc(N3CCc4ccccc4C3)c21.Cl [Example 473, 1-propyl-7-(1,2,3,4-tetrahydroisoquinolin-2-yl)-2,3-dimethyl-1H-pyrrolo[2,3-c]pyridine hydrochloride], which ED50 [1] is on record?
A: 2.8 mg/kg

Q: And the IC50 [2]?
A: 470 nM

Q: What does the source list for COc1ccc(Cn2c(C)c(C)c3ccnc(N4CCc5ccccc5C4)c32)cc1.Cl [Example 482, 1-(4-methoxybenzyl)-7-(1,2,3,4-tetrahydroisoquinolin-2-yl)-2,3-dimethyl-1H-pyrrolo[2,3-c]pyridine hydrochloride]?
A: ED50 [1]: 2.4 mg/kg; IC50 [2]: 360 nM

Q: Which results are given for Cc1c(C)n(CC(C)C)c2c(NCc3ccc(F)cc3)nccc12.Cl [Example 208, 7-(4-fluorobenzylamino)-1-isobutyl-2,3-dimethyl-1H-pyrrolo[2,3-c]pyridine hydrochloride]?
A: ED50 [1]: 1.3 mg/kg; IC50 [2]: 94 nM

Q: Which ED50 [1] does the source give for Cc1[nH]c2c(N3CCc4ccccc4C3)nccc2c1C.Cl [Example 468, 7-(1,2,3,4-tetrahydroisoquinolin-2-yl)-2,3-dimethyl-1H-pyrrolo[2,3-c]pyridine hydrochloride] here?
A: 5.2 mg/kg

Q: And the IC50 [2]?
A: 190 nM
